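Values below derive from 48-hour exposures of cells grown in 96-well plates, with endpoints linearly interpolated between the two concentrations bracketing the appropriate inhibition level. GI50 marks 50% less growth.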 The source made the active and inactive calls. Rule as the data show it: active = GI50 up to about 1.1 µM and inactive = higher.
Assays:
Experiment in all cases: growth of human tumour cells (NCI), 48 h
[1] = system: DLD-1
[2] = system: DMS-114
[3] = system: DMS-273
[4] = system: HOP-18
[5] = system: KM-20L2
[6] = system: M19-MEL
[7] = system: SNB-78
[8] = system: XF498
[9] = system: RXF 631

| SMILES | GI50 [1] | GI50 [2] | GI50 [3] | GI50 [4] | GI50 [5] | GI50 [6] | GI50 [7] | GI50 [8] | GI50 [9] |
| --- | --- | --- | --- | --- | --- | --- | --- | --- | --- |
| CC(=O)C1C(c2ccccc2)C2(C)OC(=O)C(C#N)C12C (centres undefined) | > 100 µM (inactive) | > 100 µM (inactive) | > 100 µM (inactive) | > 100 µM (inactive) | > 100 µM (inactive) | > 100 µM (inactive) | > 100 µM (inactive) | > 100 µM (inactive) | – |
| O=C(C(=O)c1cc2ccccc2[nH]1)c1cc2ccccc2[nH]1 | > 316 µM (inactive) | > 220 µM (inactive) | > 318 µM (inactive) | – | > 347 µM (inactive) | > 195 µM (inactive) | > 347 µM (inactive) | > 176 µM (inactive) | > 347 µM (inactive) |
| O=C1NC2(CCCCCC2)C2CCCCCCC12O (centres undefined) | > 100 µM (inactive) | > 100 µM (inactive) | > 100 µM (inactive) | > 100 µM (inactive) | – | > 100 µM (inactive) | > 100 µM (inactive) | > 100 µM (inactive) | – |
| Cn1cnc2nc(Cl)nc(NC(C)(C)C(C)(C)O)c21 | > 100 µM (inactive) | > 100 µM (inactive) | > 100 µM (inactive) | > 100 µM (inactive) | > 100 µM (inactive) | – | > 100 µM (inactive) | > 100 µM (inactive) | – |
| Cc1cc(N(CCC#N)CCC#N)ccc1/C=C(\NC(=O)/C=C/c1ccccc1)NC(=O)Nc1ccccc1C | 78.3 µM (inactive) | 89.7 µM (inactive) | > 100 µM (inactive) | – | > 100 µM (inactive) | > 100 µM (inactive) | 51.5 µM (inactive) | > 10 µM (inactive) | 84.1 µM (inactive) |
| O=c1c2cccc3cccc(c4oc5c6cccc7cccc(c(=O)c5c14)c76)c32 | 15.1 µM (inactive) | 12.5 µM (inactive) | 12.8 µM (inactive) | 14.6 µM (inactive) | 15.4 µM (inactive) | 12 µM (inactive) | 13.7 µM (inactive) | – | 11.4 µM (inactive) |
| C[C@]12CCC(=O)C(O)=C1CC[C@@H]1C2CC[C@]2(C)Nc3c(cnn3-c3ccccc3)CC12 (some centres undefined) | > 100 µM (inactive) | – | 56.4 µM (inactive) | – | 56.5 µM (inactive) | > 100 µM (inactive) | > 100 µM (inactive) | > 100 µM (inactive) | 29.9 µM (inactive) |
| O=C(O)CCC(=O)N1c2ccccc2CC1c1c[nH]c2ccccc12 (centres undefined) | – | > 100 µM (inactive) | > 100 µM (inactive) | > 100 µM (inactive) | > 100 µM (inactive) | > 100 µM (inactive) | > 100 µM (inactive) | > 100 µM (inactive) | – |
| CCCCCCCCC(O)C#CC(N)=O (centres undefined) | 10.2 µM (inactive) | 3.34 µM (inactive) | 7.28 µM (inactive) | 12.6 µM (inactive) | 15.6 µM (inactive) | 11.8 µM (inactive) | 15.6 µM (inactive) | 17.1 µM (inactive) | 11.7 µM (inactive) |
| CCN(CC)CCN1CCc2c([nH]c3ccccc23)C1c1cccnc1 (centres undefined) | > 100 µM (inactive) | > 100 µM (inactive) | > 100 µM (inactive) | > 100 µM (inactive) | > 100 µM (inactive) | > 100 µM (inactive) | > 100 µM (inactive) | > 100 µM (inactive) | – |
| Cc1cc2c(=O)c3ccccc3[nH]c2c(C(=O)O)c1C | > 100 µM (inactive) | > 100 µM (inactive) | > 100 µM (inactive) | – | > 100 µM (inactive) | > 100 µM (inactive) | 36.6 µM (inactive) | > 100 µM (inactive) | – |
| COc1ccc(O)cc1C(O)c1ccccc1 (centres undefined) | > 100 µM (inactive) | – | > 100 µM (inactive) | > 100 µM (inactive) | > 100 µM (inactive) | > 100 µM (inactive) | > 100 µM (inactive) | > 100 µM (inactive) | – |
| Brc1cccc(/C=N/C23CC4CC(CC(C4)C2)C3)c1 | > 100 µM (inactive) | > 100 µM (inactive) | > 100 µM (inactive) | > 100 µM (inactive) | > 100 µM (inactive) | > 100 µM (inactive) | > 100 µM (inactive) | > 100 µM (inactive) | – |
| CCOC(=O)C(C(=O)OCC)=C1C=C(c2ccccc2)c2ccccc21 | 10.7 µM (inactive) | 54.6 µM (inactive) | 51.5 µM (inactive) | – | 31.6 µM (inactive) | 52.5 µM (inactive) | > 100 µM (inactive) | 70.5 µM (inactive) | – |
| O=C(Cc1ccccc1)NN1C(=O)C(Cl)C1c1ccccc1 (centres undefined) | > 100 µM (inactive) | 33.9 µM (inactive) | – | > 100 µM (inactive) | > 100 µM (inactive) | > 100 µM (inactive) | > 100 µM (inactive) | 24.6 µM (inactive) | – |
| O=C1Nc2ccccc2N/C1=C\C(=O)c1ccccc1O | > 100 µM (inactive) | > 100 µM (inactive) | > 100 µM (inactive) | > 100 µM (inactive) | > 100 µM (inactive) | > 100 µM (inactive) | > 100 µM (inactive) | – | – |
| O=c1[nH]c(=O)n(C2OC(CO)C(O)C2O)cc1OCc1ccccc1 (centres undefined) | > 59.8 µM (inactive) | > 57.9 µM (inactive) | > 75.9 µM (inactive) | > 100 µM (inactive) | > 81.7 µM (inactive) | > 95.5 µM (inactive) | > 100 µM (inactive) | > 100 µM (inactive) | > 100 µM (inactive) |
| CC(=O)Nc1ccc(S(=O)(=O)N/N=C/CN2C(=O)c3ccccc3C2=O)cc1 | > 100 µM (inactive) | > 100 µM (inactive) | > 100 µM (inactive) | – | > 100 µM (inactive) | > 100 µM (inactive) | – | > 100 µM (inactive) | – |
| c1ccc2c(c1)CCCc1cc3ccccc3nc1-2 | > 100 µM (inactive) | 26.9 µM (inactive) | – | > 100 µM (inactive) | > 100 µM (inactive) | > 100 µM (inactive) | 85.7 µM (inactive) | 53.3 µM (inactive) | – |
| O=C(NCCO)c1ccc([N+](=O)[O-])cc1 | > 100 µM (inactive) | > 100 µM (inactive) | > 100 µM (inactive) | – | > 100 µM (inactive) | > 100 µM (inactive) | > 100 µM (inactive) | > 100 µM (inactive) | > 100 µM (inactive) |
| O=CC1CCC=CC1NC(=O)OCc1ccccc1 (centres undefined) | 27.2 µM (inactive) | 22.7 µM (inactive) | 27.9 µM (inactive) | > 100 µM (inactive) | – | 41.8 µM (inactive) | 50 µM (inactive) | 44.2 µM (inactive) | – |
| C/C(CC(=O)Nc1ccc([N+](=O)[O-])cc1)=N\Nc1ccc([N+](=O)[O-])cc1[N+](=O)[O-] | 39.4 µM (inactive) | 48.5 µM (inactive) | 18.5 µM (inactive) | – | 32.8 µM (inactive) | > 100 µM (inactive) | > 100 µM (inactive) | 86.7 µM (inactive) | > 100 µM (inactive) |
| CC12OC3(O)C4C5CC(C6C5C3C61)C42 (centres undefined) | > 100 µM (inactive) | > 100 µM (inactive) | > 100 µM (inactive) | > 100 µM (inactive) | > 100 µM (inactive) | > 100 µM (inactive) | > 100 µM (inactive) | – | > 100 µM (inactive) |
| COCC(=O)OC1CCn2c1nc1c2C(=O)C(C)=C(NC(C)=O)C1=O (centres undefined) | 12.9 µM (inactive) | 1.82 µM (inactive) | 17.5 µM (inactive) | 27.9 µM (inactive) | 20.4 µM (inactive) | 11.7 µM (inactive) | 1.81 µM (inactive) | 4.41 µM (inactive) | – |
| COc1ccc(CN[C@H]2CCc3cc(OC)c(OC)c(OC)c3-c3ccc(SC)c(=O)cc32)c(OC)c1OC | 0.0327 µM (active) | 0.019 µM (active) | 0.0267 µM (active) | 58.3 µM (inactive) | 0.0185 µM (active) | 0.0338 µM (active) | 0.0394 µM (active) | 0.0308 µM (active) | – |
| Nc1ncnc2c1ncn2COC/C=C/I | > 100 µM (inactive) | > 100 µM (inactive) | > 100 µM (inactive) | 14 µM (inactive) | – | > 100 µM (inactive) | > 100 µM (inactive) | > 100 µM (inactive) | > 100 µM (inactive) |
| Cn1c(=O)nc2n(-c3ccc(F)cc3)c3ccccc3nc-2c1=O | 19.5 µM (inactive) | 12.8 µM (inactive) | 17 µM (inactive) | 19.4 µM (inactive) | 19.8 µM (inactive) | 2.89 µM (inactive) | 20 µM (inactive) | 19.3 µM (inactive) | – |
| CNC(=O)/C(=C/c1ccc(OC)cc1)c1cc(OC)c(OC)c(OC)c1 | 2.25 µM (inactive) | 2.3 µM (inactive) | 0.516 µM (active) | > 71.1 µM (inactive) | 1.28 µM (inactive) | 1.74 µM (inactive) | 4.94 µM (inactive) | 4.95 µM (inactive) | 7.45 µM (inactive) |

From ChEMBL document CHEMBL1201862, “PubChem BioAssay data set” (2004)
